Data on four molecules can be found in patent US9433571B2, “Irritation mitigating polymers and uses therefor” (Lubrizol Advanced Materials, Inc., priority 2012, dated 2016).

Data set [1] relates to Epiderm™ Human Tissue Model (EPI-200). Nature of the data set: MTT tissue viability assay (MTT ET-50 protocol) on EpiDerm skin cultures. The note with it: for Viability (%): relative to H2O negative control. The method, then: Mitigation of skin irritancy induced by sodium dodecyl sulfate (SDS) surfactant dosed with the polymer of Example 11 is assessed in the Epiderm™ Human Tissue Model (EPI-200) bioassay conducted by MatTek Corporation, Ashland, Mass. The MatTek bioassay utilizes human derived epidermal keratinocytes (NHEK) which have been cultured to form a multilayered, highly differentiated model of the human epidermis.
The MTT tissue viability assay measures the NAD(P)H dependent microsomal enzyme reduction of MTT (and to a lesser extent, the succinate dehydrogenase reduction of MTT) after exposure to a treated skin culture test sample for various exposure times. The duration of exposure resulting in a 50% decrease in MTT conversion in test formulation treated EpiDerm™ cultures, relative to control cultures, is determined (ET-50).
Skin tissue culture inserts (Cat. No. EPI-200) are pre-incubated in the wells of 6-well plates containing 0.9 ml of MatTek assay medium (Cat. No. EPI-100-ASY) for 1 hr. at 37° C. in a humidified atmosphere of 5% CO2 in air. The 6-well plates containing the tissue culture inserts are removed from the incubator and the assay media is aspirated from the wells and replaced by an additional aliquot of 0.9 ml of pre-warmed (37° C.) assay media. For each exposure time wells are then dosed (2 repetitions) with 100 μl of the test formulations set forth in Table 10 (3 tissue culture wells are dosed with 100 μl ultra-pure water as a negative control for each of the test candidates). In addition, 100 μl of a positive control formulation (1% Triton X-100 in ultrapure water) is dosed into tissue culture wells (3 repetitions for each exposure time), as well as 3 repetitions of ultrapure water as a negative control. The exposure times of the test formulations, negative control and positive control are set forth below.
MTT assay plates are prepped by preparing a 24-well plate by adding 300 μl of MTT reagent solution to an appropriate number of wells to accommodate the test. The MTT reagent is utilized at a concentration of 1 mg/ml of MTT diluted in Dulbecco's Modified Eagle Medium (DMEM). The MTT/DMEM solution is centrifuged and decanted to remove any precipitate before use.
After exposure times of 60 (1 hr.), 120 (2 hrs.) and 210 (3.5 hrs.) minutes to the test solutions, the tissue cultures are removed from the incubator and thoroughly rinsed (2 times) with Dulbecco's phosphate buffered saline (DPBS) to remove the test material. The negative control is exposed for 4 hours and the positive control is exposed for time periods of 4, 6, 8, and 10 hours. Any remaining rinse media is decanted from the top of the tissue cultures. Each tissue culture insert is transferred to an appropriately labeled well of the 24-well plate containing the MTT reagent solution and placed back in the incubator. After 30 minutes reaction with the MTT reagent, the tissue cultures are removed from the incubator. Each tissue culture insert is removed from its well and the bottom is gently blotted with a lab tissue. The inserts are immersed into a labeled 24-well extraction plate containing 2 ml of isopropanol extractant solution. The 24-well extraction plate is covered with aluminum foil (to protect the samples from light) and placed into a sealable plastic bag to minimize evaporation of the extractant solution. The sealed 24-well extraction plate is set on an orbital shaker and gently shaken for 2 hours at ambient room temperature (approximately 20° C.). […]

Another data set deals with eye. The note with it: cited from earlier work.

Where two headings read alike, the source gives them in different places.

Turning to `CCCCCCCCCCCCOS(=O)(=O)[O-].[Na+]` [Neat Surfactant, sodium dodecyl sulfate], the “Viability (%)” value is recorded as 92.3% in data set [1] (exposure time 1 hr), 32.3% in data set [1] (exposure time 2 hr) and 16.6% in data set [1] (exposure time 3.5 hr). Further, the “ET-50 (exposure time which reduces tissue viability to 50%)” value in data set [1] (interpolated between exposure times that bracket 50% viability, 100 μl formulation per tissue) was 1.63 h.

With `CCCCCCCCCCCCOS(=O)(=O)[O-].[Na+]` [sodium lauryl sulfate], the eye irritation result with eye (literature statement (Schoenberg, 1979)) is listed as “significant eye irritation”.

With Triton X-100, in data set [1], the “ET-50 (exposure time which reduces tissue viability to 50%)” value was 5.93 h.

Consider sodium laureth-12 sulfate, for which the eye irritation entry in the data set on eye is “almost completely non-irritating”.
